In paper PMC7698453, “4-Benzyloxylonchocarpin and Muracatanes A-C from Ranunculus muricatus L. and Their Biological Effects” (Biomolecules, 2020):
Where a name gives a salt, the structure may show the parent alone. Read-outs that look alike come from different tables or passages of the source.

What was measured:
[1] = molecular target: T1, AChE (from Electrophorus electricus) (Electrophorus electricus, UniProt O42275); experiment: biochemical; format: biochemical; conditions: for inhibition at 10 µM: at concentration of 10 µM, ATChI 0.625 mM
T1 construct: purchased Merck (Darmstadt, Germany)
Experimental: (§1) A solution of tris(hydroxymethyl)-aminomethane (606 mg) in twice-distilled water (100 mL) was adjusted to a pH of 8.0 ± 0.1 with HCl to get a 50 mM Tris-HCl buffer solution. The AChE solution holding 2.005 U/mL was prepared by dissolving the enzyme (271 U/mg, 0.037 mg) in freshly prepared buffer pH 8.0 (5 mL) comprising extra NaN3 (0.98 mg), and for the BChE solution with the concentration of 2.040 U/mL: the enzyme (7.54 U/mg, 1.353 mg) was dissolved in freshly prepared buffer pH 8.0 (5 mL) comprising NaN3 (0.98 mg). The DTNB solution with the concentration of 3 mM was prepared by dissolving DTNB (23.8 mg) in buffer pH 8.0 (20 mL) and this was followed by the addition of MgCl2 (38.0 mg) and NaCl (116.8 mg). The ATChI solution with the concentration of 15 mM was prepared by dissolving ATChI (43.4 mg) in twice-distilled water (10 mL). Furthermore, all solutions were stored in Eppendorf tubes in the refrigerator or freezer. […] The final concentrations for the enzymatic assays were obtained by diluting the stock solution with twice-distilled water.
(§2) A mixture of the tested natural product solutions (25 µL, 3 different concentrations and one blank), DTNB solution (125 μL) and enzyme solution (25 μL, AChE or BChE) was incubated at 30 °C for 20 min in 96-well microplates followed by the addition of the substrate (25 μL, at 4 different concentrations). The final substrate concentrations were as follows: [ATChI] = 0.9375 mM, 0.625 mM, […], and 0.1875 mM. Moreover, the absorbance (λ = 415 nm) was measured at 30 °C for 30 min at 1 min intervals. […] Ki and Ki’ were deduced from Lineweaver–Burk, Dixon, and Cornish–Bowden plots as well as the mode of inhibtion. The relative inhibition was deduced as the quotient of the slopes (compound divided by blank) of the linear ranges. The concentration of each compound was 10 µM while the concentration was ATChI = 0.625 mM.

BChE (from equine serum) = molecular target: T2, BChE (from equine serum) (Equus caballus, UniProt P81908); experiment: Cholinesterase assay (Ellman's method), BChE; format: biochemical; conditions: for inhibition at 10 µM: read-out: BChE % Inhibition
T2 construct: BChE (from equine serum); purchased Merck (Darmstadt, Germany); host or cells: equine serum
Experimental: as §1, §2

[2] = Sulforhodamine B cytotoxicity assay, A2780; format: cell-based; conditions: human, A2780 ovarian carcinoma cells; SRB assay, tested 1-30 µM
Experimental: (§3) The cytotoxicity of the natural products was screened by using the sulforhodamine-B (Kiton Red S, ABCR, Karlsruhe, Germany) in micro culture colorimetric assay using 96-well plates with the seeding of the cells on day 0 applying appropriate cell densities to prevent confluence of the cells during the period of the experiment. On day 1, the cells were treated with six different concentrations (1, 3, 7, 12, 20 and 30 µM); thereby, the final concentration of DMSO was always ≤ 0.5%, generally regarded as non-toxic to the cells. On day 4, the supernatant medium was discarded; the cells were fixed with 10 % trichloroacetic acid. After another day at 4 °C, the cells were washed in a strip washer and dyed with the SRB solution (100 µL, 0.4% in 1% acetic acid) for about 20 min and this was followed by washing of the plates (four times, 1% acetic acid) and air-drying overnight. Furthermore, tris base solution (200 µL, 10 mM) was added to each well and absorbance was measured at λ = 570 nm employing a reader (96 wells, Tecan Spectra, Crailsheim, Germany).

[3] = Sulforhodamine B cytotoxicity assay, HT29; format: cell-based; conditions: human, HT29 colorectal adenocarcinoma cells; SRB assay, tested 1-30 µM
Experimental: as §3

[4] = Sulforhodamine B cytotoxicity assay, MCF7; format: cell-based; conditions: human, MCF7 breast cancer cells; SRB assay, tested 1-30 µM
Experimental: as §3

[5] = Sulforhodamine B cytotoxicity assay, SW1736; format: cell-based; conditions: human, SW1736 thyroid carcinoma cells; SRB assay, tested 1-30 µM
Experimental: as §3

[6] = Sulforhodamine B cytotoxicity assay, FaDu; format: cell-based; conditions: human, FaDu pharynx carcinoma cells; SRB assay, tested 1-30 µM
Experimental: as §3

[7] = molecular target: T3, α-Glucosidase type I (EC 3.2.1.20 from Saccharomyces cerevisiae) (Saccharomyces cerevisiae, UniProt P53341); experiment: α-Glucosidase assay (p-NPG substrate); format: biochemical; conditions: for inhibition at 10 µM: at concentration of 10 µM
T3 construct: purchased Sigma-Aldrich (St. Louis, MO, USA)
Experimental: The α-glucosidase assay was applied to pure natural product 3 according to the protocol described by Schmidt and co-workers. In short, the assays were performed in 96-well microplates using a Multiskan FC microplate photometer (Thermo Fisher Scientific, Waltham, MA, USA) controlled by SkanIt 2.5.1 software (Thermo Fisher Scientific, Waltham, MA, USA) with final volumes of 200 µL in each well. A phosphate buffer (100 mM) was prepared by dissolving 2.65 g sodium dihydrogen phosphate dihydrate, 4.70 g disodium hydrogen phosphate, and 0.10 g sodium azide in 500 mL Milli-Q water and adjusting the pH to 7.5. […] The microplate was shaken for 2 min, and incubated for 10 min at 28 °C. Then, 20 µL of p-NPG substrate (10 mM, 60.2 mg in 20 mL buffer) was added to each well to initiate the reaction. The enzyme activity (expressed as cleavage rate ΔAU/s) was determined by measuring the absorbance at 405 nm every 30 s for 35 min, and percentage inhibition was calculated according to the equation: Percent inhibition=Slope(blank)−Slope(sample)/Slope(blank)× 100% where slopeblank is the enzyme activity of the wells containing buffer, enzyme, and substrate and slopesample is the enzyme activity in the wells containing buffer, enzyme, substrate, and sample.

[8] = Ki' (mixed-mode inhibition), from Lineweaver–Burk, Dixon and Cornish–Bowden plots

T3 sequence (P53341 whole entry): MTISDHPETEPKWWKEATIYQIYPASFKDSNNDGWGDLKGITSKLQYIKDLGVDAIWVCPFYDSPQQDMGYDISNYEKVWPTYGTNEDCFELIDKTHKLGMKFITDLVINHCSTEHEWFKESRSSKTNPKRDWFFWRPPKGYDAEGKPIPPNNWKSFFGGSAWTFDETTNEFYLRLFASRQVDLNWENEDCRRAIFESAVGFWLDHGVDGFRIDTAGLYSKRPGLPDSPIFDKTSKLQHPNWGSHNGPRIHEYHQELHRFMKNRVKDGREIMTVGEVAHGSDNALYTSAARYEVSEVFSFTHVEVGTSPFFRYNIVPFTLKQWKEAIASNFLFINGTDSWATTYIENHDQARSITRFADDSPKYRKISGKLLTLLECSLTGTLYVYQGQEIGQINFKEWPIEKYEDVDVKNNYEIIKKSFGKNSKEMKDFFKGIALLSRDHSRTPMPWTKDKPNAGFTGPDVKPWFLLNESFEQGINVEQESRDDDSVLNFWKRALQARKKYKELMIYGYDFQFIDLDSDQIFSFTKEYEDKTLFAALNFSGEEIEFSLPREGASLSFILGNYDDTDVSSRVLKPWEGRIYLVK
T2 sequence (P81908 whole entry): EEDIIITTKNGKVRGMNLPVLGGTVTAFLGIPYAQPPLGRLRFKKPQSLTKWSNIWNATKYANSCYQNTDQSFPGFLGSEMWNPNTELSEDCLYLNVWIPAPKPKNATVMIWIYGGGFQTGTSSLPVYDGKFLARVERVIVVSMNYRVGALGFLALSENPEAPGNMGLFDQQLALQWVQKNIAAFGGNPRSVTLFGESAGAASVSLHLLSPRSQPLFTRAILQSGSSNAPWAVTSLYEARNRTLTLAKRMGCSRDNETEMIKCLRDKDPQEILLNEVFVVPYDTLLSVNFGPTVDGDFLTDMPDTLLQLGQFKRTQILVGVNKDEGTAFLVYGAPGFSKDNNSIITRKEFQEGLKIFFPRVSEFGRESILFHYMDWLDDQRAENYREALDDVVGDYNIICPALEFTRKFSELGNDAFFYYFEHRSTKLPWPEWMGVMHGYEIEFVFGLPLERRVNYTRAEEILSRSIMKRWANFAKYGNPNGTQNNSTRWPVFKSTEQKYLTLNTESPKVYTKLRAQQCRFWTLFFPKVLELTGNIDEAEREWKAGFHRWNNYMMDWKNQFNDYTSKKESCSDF
T1 sequence (O42275 24-633): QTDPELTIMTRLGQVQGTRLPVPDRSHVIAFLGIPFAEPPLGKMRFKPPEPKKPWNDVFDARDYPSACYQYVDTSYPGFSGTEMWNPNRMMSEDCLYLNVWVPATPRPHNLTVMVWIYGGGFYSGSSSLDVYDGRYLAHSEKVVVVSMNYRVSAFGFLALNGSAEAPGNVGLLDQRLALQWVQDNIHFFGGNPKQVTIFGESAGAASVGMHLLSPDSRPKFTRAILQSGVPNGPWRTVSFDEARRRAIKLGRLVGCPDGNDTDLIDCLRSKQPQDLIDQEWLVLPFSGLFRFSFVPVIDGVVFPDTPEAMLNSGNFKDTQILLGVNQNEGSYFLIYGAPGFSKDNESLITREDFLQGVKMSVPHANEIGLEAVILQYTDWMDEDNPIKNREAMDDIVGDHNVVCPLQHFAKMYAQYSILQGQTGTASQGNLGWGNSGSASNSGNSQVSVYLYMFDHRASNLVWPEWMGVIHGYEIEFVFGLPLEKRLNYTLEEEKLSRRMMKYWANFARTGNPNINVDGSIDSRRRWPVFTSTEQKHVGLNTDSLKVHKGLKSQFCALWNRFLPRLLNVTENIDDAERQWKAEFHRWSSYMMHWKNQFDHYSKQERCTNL

| SMILES | mode of inhibition of AChE [1] | AChE Ki' [1, 8] [µM] | Ki [1, 8] [µM] | inhibition at 10 µM [1] [%] | Ki ([1]; from Lineweaver–Burk, Dixon and Cornish–Bowden plots) [µM] | inhibition at 10 µM (BChE (from equine serum); at concentration of 10 µM) [%] | IC50 at 3 days [2] [µM] | IC50 at 3 days [3] [µM] | IC50 at 3 days [4] [µM] | IC50 at 3 days [5] [µM] | IC50 at 3 days [6] [µM] | inhibition at 10 µM [7] [%] | IC50 [7] [µM] | inhibition at 10 µM (BChE (from equine serum)) [%] | mode of inhibition of BChE (BChE (from equine serum); results not shown) |
| --- | --- | --- | --- | --- | --- | --- | --- | --- | --- | --- | --- | --- | --- | --- | --- |
| CC1(C)C=Cc2c(ccc(C(=O)/C=C/c3ccc(OCc4ccccc4)cc3)c2O)O1 [Compound 1, (E)-3-(4-(benzyloxy)phenyl)-1-(5-hydroxy-2,2-dimethyl-2H-chromen-6-yl)prop-2-en-1-one] | mixed-mode type inhibitor | 3.54 ± 0.24 | 3.54 | 97.4 | 5.39 ± 0.51 | 27.3 | > 30 | > 30 | > 30 | > 30 | > 30 | – | – | – | – |
| COC(=O)C(Cc1ccc2c(c1OC)C(=O)c1cccc(OC)c1C2=O)C(=O)OC [Compound 2, dimethyl 2-((1,5-dimethoxy-9,10-dioxo-9,10-dihydroanthracen-2-yl)methyl)malonate] | – | – | – | – | – | – | > 30 | > 30 | > 30 | > 30 | > 30 | 13.4 | – | – | – |
| O=C1c2ccc(O)cc2C(=O)c2c(O)ccc(O)c21 [Compound 3, 1,4,6-trihydroxyanthracene-9,10-dione] | – | – | – | – | – | – | > 30 | > 30 | > 30 | > 30 | > 30 | 80.4 | 164 ± 83 | – | – |
| COc1ccc(/C=C/C(=O)c2ccc3c(c2O)C=CC(C)(C)O3)cc1 [Compound 5, 4-methoxylonchocarpin] | – | – | – | 49.9 | – | 8.7 | 25.4 | 20.2 | 23.7 | 26.2 | > 30 | 36.1 | – | – | – |
| COc1ccc2c3c1O[C@H]1C[C@@H](O)C=C[C@@]31CCN(C)C2 [GH, Galantamine hydrobromide, reference compound] | – | – | – | – | – | – | – | – | – | – | – | – | – | 54.8 | competitive inhibitor |
